# Source: patent publication US10980764B1, “Exogenous ketone supplements for reducing anxiety-related behavior” (priority 2016, dated 2021)
# Columns and labels:
# [1] = Blood βHB and glucose levels (PRECISION XTRA), SPD rats, Study 1; conditions: for Glucose, Mean Diff., Tukey's multiple comparisons test (Compare S-D to WagRij) / βHB, Mean Diff., Tukey's multiple comparisons test (Compare S-D to WagRij): S-D (SPD) rats, own Baseline minus 7 days of the same group; for Blood glucose levels: at 24 hours; for Blood βHB (90 days), Mean Diff., Tukey's multiple comparisons test: chronic feeding, After:SD (control) minus After:treated group
# Experimental: In order to familiarize the animals to the intragastric gavage method, tap water was gavaged for 5 days before ketone supplementation. A total of 48 male SPD rats were fed for 83 days with either standard rodent chow (SD)+water application (˜25 g/kg b.w. water/day) (SD/control group; n=9) or SD+ketone supplementation by gavage.
# In the chronic feeding study, blood βHB and glucose levels were measured 24 hours before the 1st day of ketone treatments (baseline levels) and after the 13th week of ketone treatment. In the 7-day oral gavage studies, blood βHB and glucose levels were measured 24 hours before the 1st day of ketone treatments (baseline levels; SPD and WAG/Rij rats) and after the 1st day (SPD rats) and the 7th day (SPD and WAG/Rij rats) of ketone gavaging. In acute study, blood βHB and glucose levels were measured 40 min after ketone treatment. Whole blood samples (10 μL) were taken from the saphenous vein for analysis of blood glucose (mg/dl) and βHB (mmol/1) levels with the commercially available glucose and ketone monitoring system PRECISION XTRA™ (ABBOTT Laboratories, Abbott Park, Ill., USA). The PRECISION XTRA™ ketone monitoring system only measures βHB blood levels; therefore, total blood ketone levels would be higher than measured.
# (§1) All data are presented as the mean±standard error of the mean (SEM). The effects of ketone supplementations on anxiety level were compared, as well as on blood βHB and glucose levels to control or/and baseline levels. Data analysis was performed using GraphPad PRISM version 6.0a. Results were considered significant when p<0.05. Significance was determined by unpaired t-test. Blood ketone, blood glucose, and body weight change were compared using a two-way ANOVA with Tukey's multiple comparisons test and unpaired t-test.
# [2] = Blood βHB and glucose levels (Precision Xtra), SPD rats, Study 3
# Description: A total of 48 male SPD rats were fed for 83 days with either standard rodent chow (2018 Teklad Global 18% Protein Rodent Diet (#2018), Harlan) (SD/control; n=9) or SD+ketone supplementation. […] Higher dose was used for chronic administration, as the rats were consuming food-integrated ketone supplementation throughout the day, not at a single time point.
# In order to familiarize the animals to the intragastric gavage method, water was gavaged for 5 days prior to ketone supplementation.
# In the chronic feeding study, blood βHB and glucose levels were measured 24 hours before the 1st day of ketone treatments (baseline levels) and at the 13th week after the EPM experiment. In the 7-day oral gavage studies, blood βHB and glucose levels were measured 24 hours before the 1st day of ketone treatments (baseline levels; SPD and WAG/Rij rats), 24 hours after the first gavage, and 60 min after gavage on the 7th day (SPD and WAG/Rij rats). Whole blood samples (10 μL) were taken from the saphenous vein for analysis of blood glucose (mg/dl) and βHB (mmol/1) levels with the commercially available glucose and ketone (βHB) monitoring system Precision Xtra™ (Abbott Laboratories, Abbott Park, Ill., USA).
# as §1, with “anxiety-related behavior” for “anxiety level”, “one-way ANOVA with Fisher s LSD test for the behavioral data.” for “unpaired t-test.”, “test.” for “test and unpaired t-test.”
# [3] = system: WAG/Rij rats; experiment: EPM after 7 days oral gavage, WAG/Rij rats, Study 1; format: in vivo, rat; conditions: 7 days gavage ~2.5 g/kg b.w./day, compared to control (SD)
# Experimental: To extend the results and ensure that the results were not strain dependent, exogenous ketone supplements were tested on both SPD rats and Wistar Albino Glaxo/Rijswijk (WAG/Rij) rats for 7 days by gavage (5 g/kg/day and 2.5 g/kg/day, respectively, SD+KE and SD+KS), as WAG/Rij rats show reduced activity of GABAergic system (Luhmann H J, et al. Impairment of intracortical GABAergic inhibition in a rat model of absence epilepsy. Epilepsy Res. 1995 September; 22(1):43-51).
# EPM (COULBOURN Instruments) was used to assess anxiety-related behavior of the rats after 83 days of chronic feeding or after 7 days of oral gavage. EPM experiments were carried out under non-stressful conditions (in a dimly lit and quiet room) between 12.00 and 14.00 hours.
# The rats were transferred in their home cage to the experimental room 30 min prior to beginning the experiment. Briefly, rats were placed in the intersection of the four arms of the EPM, facing the open arm opposite to where the experimenter was and their behavior was recorded for 5 minutes. The amount of time spent and number of entries made on the open arms, closed arms and the center zones were recorded. Latency to entry into the closed arms and the distance travelled in each zones was also measured in chronically treated SPD rats. Notes were made on other ethological measures such as number of rears, head dips, fecal boli, and freezing, or stretched-attend postures.
# At the end of the 5-minute test the rats were removed from the maze and placed back into their home cage. The maze was cleaned with 70% alcohol and after it with tap water and dried with paper towel between rats. The primary method for data collection was a video-tracking system with computer interface and video camera (SMART V3.0 PLATFORM, PANLAB, Harvard Apparatus, USA), to automatically collect behavioral data in SPD rats. A blinded observer was present in the testing room separated from the maze by a curtain, and manually collected EPM data in both SPD and WAG/Rij animals at the end of treatments.
# Results were considered significant when p<0.05. Significance was determined by unpaired t-test.
# [4] = SPD rats, 7 days of gavaging, compared to baseline
# [5] = SPD rats, after 83 days of chronic feeding, compared to control
# [6] = SPD rats, 24h:SD (control) minus 24h:treated group
molecule,measurement,setting,value
"CC(=O)CC(=O)OCCC(C)OC(=O)CC(C)=O (centres unmarked) [KE, 1,3-butanediol-acetoacetate diester]","Glucose, Mean Diff., Tukey's multiple comparisons test (Compare S-D to WagRij)",[1],-1.841 mg/dL
same,"βHB, Mean Diff., Tukey's multiple comparisons test (Compare S-D to WagRij)",[1],−0.1389 mmol/1
same,Blood βHB levels,"[1]; SPD rats, 24 hours after a single gavage, compared to baseline",elevated
same,Blood βHB,[1]; [4],did not change
same,Blood βHB,[1]; [5],elevated
same,Blood glucose levels,"[1]; SPD rats, compared to baseline",lower
same,Blood glucose levels,"[1]; SPD rats, compared to control group",lower
same,"Blood βHB (90 days), Mean Diff., Tukey's multiple comparisons test",[1]; SPD rats,−0.2978 mmol/1
same,Blood glucose,"[1]; SPD rats, from baseline to 7 days",did not change
same,"Blood Glucose (7 days), Mean Diff., Tukey's multiple comparisons test",[1]; [6],33.11 mg/dL
same,"Blood βHB (7 days), Mean Diff., Tukey's multiple comparisons test",[1]; [6],−0.5235 mmol/1
same,"Blood Glucose (7 days), Mean Diff., Tukey's multiple comparisons test","[1]; SPD rats, 24h minus 7days of the same group",-23.02 mg/dL
same,"Blood Glucose (7 days), Mean Diff., Tukey's multiple comparisons test","[1]; SPD rats, own Baseline minus 24h of the same group",21.18 mg/dL
same,Blood βHB levels,"[2]; SPD rats, 24 hours after a single gavage, compared to control",elevated
same,Blood glucose,"[2]; SPD rats, after 13 weeks of chronic feeding",lower
same,Blood βHB levels,[2]; [5],significantly elevated
same,Blood glucose levels,"[2]; SPD rats, sub-chronic, at 24 hours, compared to control",lower
same,Time spent in the center,[3],more time
Na^+/K^+-βHB mineral salt [KS],"Glucose, Mean Diff., Tukey's multiple comparisons test (Compare S-D to WagRij)",[1],-0.3258 mg/dL
same,"βHB, Mean Diff., Tukey's multiple comparisons test (Compare S-D to WagRij)",[1],−0.4455 mmol/1
same,Blood βHB,[1]; [4],significant difference
same,Blood βHB,[1]; [5],elevated
same,Blood glucose levels,"[1]; SPD rats, compared to baseline",lower
same,"Blood βHB (90 days), Mean Diff., Tukey's multiple comparisons test",[1]; SPD rats,−0.3653 mmol/1
same,"Blood βHB (7 days), Mean Diff., Tukey's multiple comparisons test","[1]; SPD rats, 7days:SD (control) minus 7days:treated group",−0.547 mmol/1
same,Blood βHB,"[2]; rat, in vivo",elevated
same,Entries to the closed arms,[3],less frequent
same,Time spent in the closed arms,[3],less time
same,Time spent in the open arms,[3],more time
